In patent US10875876B2, “Cyclized sulfamoylarylamide derivatives and the use thereof as medicaments for the treatment of hepatitis B” (priority 2015, dated 2020) one finds CC50 and EC50 data, which are given here for 25 compounds.

Series [1] can be described thus: Cytotoxicity in HepG2 cells, Resazurin assay. To be noted: human, HepG2 cells, TOX-HepG2-4 d CC50 (μM), HepG2 cells incubated for 4 days, viability by Resazurin assay. (The colour change of resazurin is a common sign of viable cells or microbes.)
Another series concerns HBV. Kind of series: anti HBV activity, HepG2.117 cell line, intracellular HBV DNA by realtime PCR. Format: cell-based. The following applies: HepG2.117 cell line (Tet-off), 3 days of treatment, intracellular HBV DNA quantified by realtime PCR, read-out: HBV-AVE-HepG2.117 EC50. On the procedure: The anti HBV activity was measured using the HepG2.117 cell line, a stable, inducibly HBV producing cell line, which replicates HBV in the absence of doxicycline (Tet-off system). For the antiviral assay, HBV replication was induced, followed by a treatment with serially diluted compound in 96-well plates in duplicate. After 3 days of treatment, the antiviral activity was determined by quantification of intracellular HBV DNA using realtime PCR and an HBV specific primer set and probe.

The mark [2] stands for this setting: Hepatitis B virus, HepG2.117, 72 h.

SMILES strings stand for the structures. Where two headings read alike, the source gives them in different places.

Usually CC50 stands for the concentration at which the toxic effect on the cells reaches its halfway point. A low value points to greater toxicity to the cells. In general, EC50 refers to the concentration needed to bring the measured effect to its halfway point.

Take `Cn1cc2c(c1C(=O)Nc1ccnc(C(F)(F)F)c1)CCC(C(F)(F)F)NS2(=O)=O` (racemic) [Compound 59, 7-methyl-1,1-dioxo-3-(trifluoromethyl)-N-[2-(trifluoromethyl)-4-pyridyl]-2,3,4,5-tetrahydropyrrolo[3,4-f]thiazepine-6-carboxamide]: the half-maximal cytotoxic concentration (CC50) at 4 days in series [1] was > 25 µM. For the same compound, in the series with HBV (setting [2]), the EC50 worked out at 240 nM.

In the case of `Cc1cc(NC(=O)c2c3c(cn2C)S(=O)(=O)N[C@@H](C(O)C2CC2)CO3)ccc1F` (single isomer, unassigned) [Compound 206a, 3-[cyclopropyl(hydroxy)methyl]-N-(4-fluoro-3-methyl-phenyl)-7-methyl-1,1-dioxo-3,4-dihydro-2H-pyrrolo[3,4-b][1,4,5]oxathiazepine-6-carboxamide], the CC50 at 4 days in series [1] is > 25 µM. In addition, the EC50 in the series on HBV (setting [2]) was determined as 13 nM.

As for `C[C@H](O)[C@H]1CCc2c(cn(C)c2C(=O)Nc2ccnc(Br)c2)S(=O)(=O)N1` [Compound 111, (3R)—N-(2-bromo-4-pyridyl)-3-[(1S)-1-hydroxyethyl]-7-methyl-1,1-dioxo-2,3,4,5-tetrahydropyrrolo[3,4-f]thiazepine-6-carboxamide], in series [1], the 50% cytotoxic concentration (CC50) at 4 days is > 25 µM. Moreover, the EC50 in the series on HBV (setting [2]) was determined as 89 nM.

With `C[C@H](O)[C@H]1CCc2c(cn(C)c2C(=O)Nc2cc(F)c(F)c(F)c2)S(=O)(=O)N1` [Compound 104, (3R)-3-[(1S)-1-hydroxyethyl]-7-methyl-1,1-dioxo-N-(3,4,5-trifluorophenyl)-2,3,4,5-tetrahydropyrrolo[3,4-f]thiazepine-6-carboxamide], in series [1], the CC50 at 4 days is > 25 µM. For the same compound, in the series with HBV (setting [2]), the EC50 worked out at 7 nM.

For `CC1CCc2c(nn(C)c2C(=O)Nc2ccc(F)c(F)c2)S(=O)(=O)N1` (centres unmarked) [compound 246], in series [1], the CC50 at 4 days is > 25 µM. The EC50 in the series with HBV (setting [2]) is > 130 nM.

Take `CC(C)[C@H]1COc2c(cn(C)c2C(=O)Nc2ccc(F)c(F)c2)S(=O)(=O)N1` [Compound 22, (3S)—N-(3,4-difluorophenyl)-3-isopropyl-7-methyl-1,1-dioxo-3,4-dihydro-2H-pyrrolo[3,4-b][1,4,5]oxathiazepine-6-carboxamide]: the CC50 at 4 days in series [1] was > 25 µM. In the series on HBV (setting [2]), the EC50 is 9 nM.

`CC(C)[C@@H]1Oc2c(cn(C)c2C(=O)Nc2ccc(F)c(F)c2)S(=O)(=O)N[C@H]1CO` [compound 241]: the CC50 at 4 days in series [1] is > 25 µM. Further, the concentration for a half-maximal effect (EC50) in the series with HBV (setting [2]) was > 250 nM.

Take `Cn1cc2c(c1C(=O)Nc1cc(F)c(F)c(F)c1)CCC(C(C)(C)O)NS2(=O)=O` (single isomer, unassigned) [Compound 149a, 3-(1-hydroxy-1-methyl-ethyl)-7-methyl-1,1-dioxo-N-(3,4,5-trifluorophenyl)-2,3,4,5-tetrahydropyrrolo[3,4-f]thiazepine-6-carboxamide]: in series [1], the CC50 at 4 days is > 25 µM. Moreover, the EC50 with HBV is > 125 nM.

Consider `Cn1cc2c(c1C(=O)Nc1ccc(F)c(C#N)c1)CCC(C(F)(F)F)NS2(=O)=O` (single isomer, unassigned) [Compound 60a, N-(3-cyano-4-fluoro-phenyl)-7-methyl-1,1-dioxo-3-(trifluoromethyl)-2,3,4,5-tetrahydropyrrolo[3,4-f]thiazepine-6-carboxamide], for which the half-maximal cytotoxic concentration (CC50) at 4 days in series [1] was > 25 µM. In the series on HBV, the half-maximal effective concentration (EC50) was 55 nM.

`C[C@H]1C=Cc2c(cn(C)c2C(=O)Nc2ccc(F)c(C(F)F)c2)S(=O)(=O)N1` (single isomer, unassigned) [Compound 51, (3*S)—N-[3-(difluoromethyl)-4-fluoro-phenyl]-3,7-dimethyl-1,1-dioxo-2,3-dihydropyrrolo[3,4-f]thiazepine-6-carboxamide]: in series [1], the CC50 at 4 days is > 25 µM. Besides, the EC50 in the series on HBV (setting [2]) was < 2 nM.

Take `Cn1cc2c(c1C(=O)Nc1cc(F)c(F)c(F)c1)OC[C@H](C(C)(C)O)NS2(=O)=O` [Compound 147, (3R)-3-(1-hydroxy-1-methyl-ethyl)-7-methyl-1,1-dioxo-N-(3,4,5-trifluorophenyl)-3,4-dihydro-2H-pyrrolo[3,4-b][1,4,5]oxathiazepine-6-carboxamide]: in series [1], the CC50 at 4 days was > 25 µM. Besides, in the series on HBV (setting [2]), the EC50 was 13 nM.

As to `Cn1cc2c(c1C(=O)Nc1ccc(F)c(F)c1)C=CC1(COC1)NS2(=O)=O` [Compound 132, N-(3,4-difluorophenyl)-7-methyl-1,1-dioxo-spiro[2H-pyrrolo[3,4-f]-thiazepine-3,3′-oxetane]-6-carboxamide], the CC50 at 4 days in series [1] is > 25 µM. The EC50 in the series with HBV (setting [2]) worked out at 19 nM.

With `Cn1cc2c(c1C(=O)Nc1ccc(F)c(C#N)c1)OC[C@](C)(Cc1ccccc1)NS2(=O)=O` [Compound 156, (3S)-3-benzyl-N-(3-cyano-4-fluoro-phenyl)-3,7-dimethyl-1,1-dioxo-2,4-dihydropyrrolo[3,4-b][1,4,5]oxathiazepine-6-carboxamide], in series [1], the CC50 at 4 days was > 25 µM. For the same compound, the EC50 with HBV (setting [2]) stood at 9 nM.

Regarding `CC(C)[C@H]1COc2c(ccc(F)c2C(=O)Nc2ccc(F)c(C#N)c2)S(=O)(=O)N1` [Compound 45, (3S)—N-(3-cyano-4-fluoro-phenyl)-7-fluoro-3-isopropyl-1,1-dioxo-3,4-dihydro-2H-5,1λ^6,2-benzoxathiazepine-6-carboxamide], the CC50 at 4 days in series [1] is > 25 µM. Further, the EC50 with HBV (setting [2]) was found to be 230 nM.

As for `Cn1cc2c(c1C(=O)Nc1cc(F)c(F)c(F)c1)OCC(C)(CO)NS2(=O)=O` (single isomer, unassigned) [Compound 214a, 3-(hydroxymethyl)-3,7-dimethyl-1,1-dioxo-N-(3,4,5-trifluorophenyl)-2,4-dihydropyrrolo[3,4-b][1,4,5]oxathiazepine-6-carboxamide], the CC50 at 4 days in series [1] is > 25 µM. For the same compound, the EC50 in the series with HBV was determined as 120 nM.

`C[C@H]1CCc2c(cn(C)c2C(=O)Nc2ccnc(C(F)(F)F)c2)S(=O)(=O)N1` (single isomer, unassigned) [Compound 53, (3*S)-3,7-dimethyl-1,1-dioxo-N-[2-(trifluoromethyl)-4-pyridyl]-2,3,4,5-tetrahydropyrrolo[3,4-f]thiazepine-6-carboxamide]: the half-maximal cytotoxic concentration (CC50) at 4 days in series [1] is > 25 µM. For the same compound, in the series on HBV (setting [2]), the EC50 is 190 nM.

In the case of `Cn1cc2c(c1C(=O)Nc1ccc(F)c(F)c1)OCC(C)(Cc1ccc(Cl)nc1)NS2(=O)=O` (centres unmarked) [Compound 197, 3-[(6-chloro-3-pyridyl)methyl]-N-(3,4-difluorophenyl)-3,7-dimethyl-1,1-dioxo-2,4-dihydropyrrolo[3,4-b][1,4,5]oxathiazepine-6-carboxamide], the CC50 at 4 days in series [1] is > 25 µM. In addition, the EC50 in the series on HBV (setting [2]) is 11 nM.

As to `Cn1cc2c(c1C(=O)Nc1ccc(F)c(C(F)F)c1)OC[C@H](Cc1cccnc1)NS2(=O)=O` [Compound 75, (3S)—N-[3-(difluoromethyl)-4-fluoro-phenyl]-7-methyl-1,1-dioxo-3-(3-pyridylmethyl)-3,4-dihydro-2H-pyrrolo[3,4-b][1,4,5]oxathiazepine-6-carboxamide], the CC50 at 4 days in series [1] was > 25 µM. The EC50 in the series on HBV (setting [2]) stood at 7 nM.

In the case of `Cn1cc2c(c1C(=O)Nc1ccc(F)c(F)c1)OCC(C)(CO)NS2(=O)=O` (single isomer, unassigned) [Compound 203a, N-(3,4-difluorophenyl)-3-(hydroxymethyl)-3,7-dimethyl-1,1-dioxo-2,4-dihydropyrrolo[3,4-b][1,4,5]oxathiazepine-6-carboxamide], the CC50 at 4 days in series [1] was > 25 µM. For the same compound, in the series with HBV (setting [2]), the EC50 came to 94 nM.

`Cc1ccc(NC(=O)c2c(F)ccc3c2OC[C@H](C(C)C)NS3(=O)=O)cc1F` [compound 232]: in series [1], the CC50 at 4 days was > 25 µM. In addition, the concentration for a half-maximal effect (EC50) in the series with HBV (setting [2]) was > 500 nM.

As to `C[C@H]1CCc2c(cn(C)c2C(=O)Nc2ccnc(Cl)c2)S(=O)(=O)N1` [Compound 166, (3S)—N-(2-chloro-4-pyridyl)-3,7-dimethyl-1,1-dioxo-2,3,4,5-tetrahydropyrrolo[3,4-f]thiazepine-6-carboxamide], the CC50 at 4 days in series [1] is > 25 µM. Moreover, the EC50 with HBV (setting [2]) came out at 56 nM.

On to `C[C@H](O)[C@H]1COc2c(cn(C)c2C(=O)Nc2ccc(F)c(C(F)F)c2)S(=O)(=O)N1` [Compound 64, (3R)—N-[3-(difluoromethyl)-4-fluoro-phenyl]-3-[(1S)-1-hydroxyethyl]-7-methyl-1,1-dioxo-3,4-dihydro-2H-pyrrolo[3,4-b][1,4,5]oxathiazepine-6-carb oxamide], for which, in series [1], the CC50 at 4 days is > 25 µM. The EC50 with HBV (setting [2]) was found to be 8 nM.

Take `Cn1cc2c(c1C(=O)Nc1ccc(F)c(F)c1)C=CC(C)(Cc1ccc(Cl)nc1)NS2(=O)=O` (centres unmarked) [Compound 219, 3-[(6-chloro-3-pyridyl)methyl]-N-(3,4-difluorophenyl)-3,7-dimethyl-1,1-dioxo-2H-pyrrolo[3,4-f]thiazepine-6-carboxamide]: the CC50 at 4 days in series [1] was > 25 µM.

`Cc1cc(CC2(C)COc3c(cn(C)c3C(=O)Nc3cc(F)c(F)c(F)c3)S(=O)(=O)N2)no1` (single isomer, unassigned) [Compound 170a, 3,7-dimethyl-3-[(5-methylisoxazol-3-yl)methyl]-1,1-dioxo-N-(3,4,5-trifluorophenyl)-2,4-dihydropyrrolo[3,4-b][1,4,5]oxathiazepine-6-carboxamide]: in series [1], the CC50 at 4 days was > 25 µM.

Take `Cc1cccc(C2(C)COc3c(cn(C)c3C(=O)Nc3ccc(F)c(C(F)F)c3)S(=O)(=O)N2)n1` (single isomer, unassigned) [Compound 177a, N-[3-(difluoromethyl)-4-fluoro-phenyl]-3,7-dimethyl-3-(6-methyl-2-pyridyl)-1,1-dioxo-2,4-dihydropyrrolo[3,4-b][1,4,5]oxathiazepine-6-carboxamide]: in series [1], the CC50 at 4 days is > 25 µM.
